Source: PubChem BioAssay (NCI)
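48-hour exposure; five concentrations; linearly interpolated endpoints. GI50: concentration for 50% inhibition of growth. TGI: total growth inhibition.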

Columns and labels:
Assay in all cases: growth of human tumour cells (NCI), 48 h
[1] = test system: NCI/ADR-RES ovarian
[2] = test system: CAKI-1 renal
[3] = test system: SW-620 colon
[4] = test system: SNB-75 CNS
[5] = test system: T-47D breast
[6] = test system: OVCAR-3 ovarian
[7] = test system: NCI-H522 lung
[8] = test system: SK-MEL-2 melanoma
[9] = test system: MDA-MB-435
[10] = test system: KM12 colon
[11] = test system: LOX IMVI melanoma
[12] = test system: SNB-19 CNS
[13] = test system: HCC-2998 colon
[14] = test system: HCT-116 colon
[15] = test system: ACHN renal
[16] = test system: SF-268 CNS
[17] = test system: CCRF-CEM leukemia
[18] = test system: A498 renal
[19] = test system: HS 578T breast
[20] = test system: MOLT-4 leukemia
[21] = test system: RXF 393 renal
[22] = test system: SF-539 CNS
[23] = test system: EKVX NSCLC
[24] = test system: K-562 leukemia
[25] = test system: IGROV1 ovarian
[26] = test system: TK-10 renal
[27] = test system: SN12C renal
[28] = test system: UACC-257 melanoma
[29] = test system: SK-MEL-5 melanoma
[30] = test system: HCT-15 colon
[31] = test system: RPMI-8226 leukemia
[32] = test system: MCF7 breast
[33] = test system: SK-OV-3 ovarian
[34] = test system: HT29 colon
[35] = test system: 786-0 renal
[36] = test system: NCI-H23 lung
[37] = test system: BT-549 breast
[38] = test system: UO-31 renal
[39] = test system: PC-3 prostate
[40] = test system: OVCAR-5 ovarian
[41] = test system: OVCAR-8 ovarian
[42] = test system: HOP-92 NSCLC
[43] = test system: HOP-62 NSCLC
[44] = test system: A549 NSCLC
[45] = test system: NCI-H226 lung
[46] = test system: MALME-3M melanoma
[47] = test system: UACC-62 melanoma
[48] = test system: SF-295 CNS
[49] = test system: DU-145 prostate
[50] = test system: COLO 205 colon
[51] = test system: SR leukemia
[52] = test system: NCI-H460 lung
[53] = test system: U251 CNS
[54] = test system: OVCAR-4 ovarian
[55] = test system: MDA-MB-231 breast
[56] = test system: HL-60(TB) leukemia
[57] = test system: M14 melanoma
[58] = test system: SK-MEL-28 melanoma

CC1=C(C(=O)Nc2ccc3[nH]ncc3c2)C(c2ccc(Cl)c(Cl)c2)CC(=O)N1 (stereo unspecified)
GI50 [1]: > 25 µM
TGI [1]: > 25 µM
GI50 [2]: > 16 µM
TGI [2]: > 25 µM
GI50 [3]: > 20.7 µM
TGI [3]: > 25 µM
GI50 [4]: 2.25 µM
TGI [4]: > 19.1 µM
GI50 [5]: > 25 µM
TGI [5]: > 25 µM
GI50 [6]: > 25 µM
TGI [6]: > 25 µM
GI50 [7]: 19.5 µM
TGI [7]: > 25 µM
GI50 [8]: > 25 µM
TGI [8]: > 25 µM
GI50 [9]: > 25 µM
TGI [9]: > 25 µM
GI50 [10]: > 25 µM
TGI [10]: > 25 µM
GI50 [11]: > 22.3 µM
TGI [11]: > 25 µM
GI50 [12]: > 25 µM
TGI [12]: > 25 µM
GI50 [13]: > 25 µM
TGI [13]: > 25 µM
GI50 [14]: 19.4 µM
TGI [14]: > 25 µM
GI50 [15]: > 25 µM
TGI [15]: > 25 µM
GI50 [16]: 9.62 µM
TGI [16]: > 25 µM
GI50 [17]: 24.2 µM
TGI [17]: > 25 µM
GI50 [18]: 4.14 µM
TGI [18]: > 25 µM
GI50 [19]: 4.29 µM
TGI [19]: > 25 µM
GI50 [20]: > 22.9 µM
TGI [20]: > 25 µM
GI50 [21]: 8.2 µM
TGI [21]: > 25 µM
GI50 [22]: > 16.8 µM
TGI [22]: > 25 µM
GI50 [23]: > 14.6 µM
TGI [23]: > 25 µM
GI50 [24]: > 25 µM
TGI [24]: > 25 µM
GI50 [25]: 12.8 µM
TGI [25]: > 25 µM
GI50 [26]: > 12.5 µM
TGI [26]: > 25 µM
GI50 [27]: > 25 µM
TGI [27]: > 25 µM
GI50 [28]: > 25 µM
TGI [28]: > 25 µM
GI50 [29]: > 25 µM
TGI [29]: > 25 µM
GI50 [30]: > 25 µM
TGI [30]: > 25 µM
GI50 [31]: > 25 µM
TGI [31]: > 25 µM
GI50 [32]: > 24.1 µM
TGI [32]: > 25 µM
GI50 [33]: > 25 µM
TGI [33]: > 25 µM
GI50 [34]: 24.6 µM
TGI [34]: > 25 µM
GI50 [35]: > 25 µM
TGI [35]: > 25 µM
GI50 [36]: > 25 µM
TGI [36]: > 25 µM
GI50 [37]: 4.99 µM
TGI [37]: > 25 µM
GI50 [38]: 3.22 µM
TGI [38]: > 25 µM
GI50 [39]: > 20.4 µM
TGI [39]: > 25 µM
GI50 [40]: > 25 µM
TGI [40]: > 25 µM
GI50 [41]: > 25 µM
TGI [41]: > 25 µM
GI50 [42]: 0.277 µM
TGI [42]: > 7.6 µM
GI50 [43]: 17 µM
TGI [43]: > 25 µM
GI50 [44]: > 25 µM
TGI [44]: > 25 µM
GI50 [45]: 6.09 µM
TGI [45]: > 25 µM
GI50 [46]: 10.6 µM
TGI [46]: > 25 µM
GI50 [47]: 18.1 µM
TGI [47]: > 25 µM
GI50 [48]: > 19.5 µM
TGI [48]: > 25 µM
GI50 [49]: > 25 µM
TGI [49]: > 25 µM
GI50 [50]: 16.6 µM
TGI [50]: > 25 µM
GI50 [51]: > 25 µM
TGI [51]: > 25 µM
GI50 [52]: > 25 µM
TGI [52]: > 25 µM
GI50 [53]: > 25 µM
TGI [53]: > 25 µM
GI50 [54]: > 25 µM
TGI [54]: > 25 µM
GI50 [55]: 15.9 µM
TGI [55]: > 25 µM
GI50 [56]: > 25 µM
TGI [56]: > 25 µM
GI50 [57]: > 25 µM
TGI [57]: > 25 µM
GI50 [58]: > 25 µM
TGI [58]: > 25 µM
